The structures appear in SMILES notation. Marks after values point to notes of the source that are not given here.

This note sets out measurements from patent publication US11633392B2 (priority 2016, dated 2023).

The target in one series is T1, human opioid μ receptor (Homo sapiens, UniProt P35372).
T1 construct: host or cells: CHO cells
The series is described as follows: Opioid receptor function test (Lance Ultra cAMP Kit), μ receptor. Format: cell-based. As to the method: (§1) Opioid Receptor Function Test
(§2) The functional activities of the compounds provided by the present invention on the μ, δ, and κ opioid receptors were investigated.
(§3) The test was performed by using Lance Ultra cAMP Kit (PerkinElmer) according to a method predetermined for the kit. In the evaluation of the agonistic activity, CHO cells expressing each of the human opioid receptors (δ, μ, and κ, accession numbers and catalog numbers are mentioned below) and 10 μM of each test compound were reacted for 30 minutes in an assay buffer (1× HBSS, […], pH 7.4, […] (isobutylmethylxanthine), 7.5% BSA) in the presence of forskolin. Subsequently, the cAMP detection reagent included in the kit was added, and 1 hour afterward, time-resolved fluorescence measurement was performed by using the EnVision plate reader (PerkinElmer). The test compounds and the control drugs (δ: SNC80, μ: DAMGO, κ: U-69593) were evaluated in a concentration range of 10^−12 to 10^−5 M, a dose-response curve of each test compound was obtained from the fluorescence values at 665 nm, and EC50 value and the Emax value were calculated. The Emax value was calculated as a ratio of the maximum reaction of the test compound to the maximum reaction of each control drug, which is taken as 100%.
(§4) • δ: Catalog No. CT4607, Accession No. NM_000911.2 • μ: Catalog No. CT4605, Accession No. NM_000914 • κ: Catalog No. CT4606, Accession No. NM_000912 (ChanTest Corporation)

Another series deals with T2, human opioid κ receptor (Homo sapiens, UniProt P41145).
T2 construct: host or cells: CHO cells
T2 sequence (P41145 whole entry): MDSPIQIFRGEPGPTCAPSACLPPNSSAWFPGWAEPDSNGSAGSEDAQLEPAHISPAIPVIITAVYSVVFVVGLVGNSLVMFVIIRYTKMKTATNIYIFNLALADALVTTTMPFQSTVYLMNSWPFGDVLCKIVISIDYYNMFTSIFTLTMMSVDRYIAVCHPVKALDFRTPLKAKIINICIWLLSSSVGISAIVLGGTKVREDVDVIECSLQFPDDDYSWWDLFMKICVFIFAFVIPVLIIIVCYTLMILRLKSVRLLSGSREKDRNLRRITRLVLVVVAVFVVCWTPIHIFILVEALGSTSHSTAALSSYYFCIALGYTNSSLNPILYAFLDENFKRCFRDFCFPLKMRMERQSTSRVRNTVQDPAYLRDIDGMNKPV
Nature of the series: Opioid receptor function test (Lance Ultra cAMP Kit), κ receptor. Format: cell-based. The note with it: maximum reaction not reached; maximum concentration 10 μM; U-69593 = 100%. How it is done:
as §1, §2, §3, §4

In the next series the target is T3, hERG potassium channel (Homo sapiens, UniProt Q12809).
T3 construct: host or cells: CHO cells
T3 sequence (Q12809 whole entry): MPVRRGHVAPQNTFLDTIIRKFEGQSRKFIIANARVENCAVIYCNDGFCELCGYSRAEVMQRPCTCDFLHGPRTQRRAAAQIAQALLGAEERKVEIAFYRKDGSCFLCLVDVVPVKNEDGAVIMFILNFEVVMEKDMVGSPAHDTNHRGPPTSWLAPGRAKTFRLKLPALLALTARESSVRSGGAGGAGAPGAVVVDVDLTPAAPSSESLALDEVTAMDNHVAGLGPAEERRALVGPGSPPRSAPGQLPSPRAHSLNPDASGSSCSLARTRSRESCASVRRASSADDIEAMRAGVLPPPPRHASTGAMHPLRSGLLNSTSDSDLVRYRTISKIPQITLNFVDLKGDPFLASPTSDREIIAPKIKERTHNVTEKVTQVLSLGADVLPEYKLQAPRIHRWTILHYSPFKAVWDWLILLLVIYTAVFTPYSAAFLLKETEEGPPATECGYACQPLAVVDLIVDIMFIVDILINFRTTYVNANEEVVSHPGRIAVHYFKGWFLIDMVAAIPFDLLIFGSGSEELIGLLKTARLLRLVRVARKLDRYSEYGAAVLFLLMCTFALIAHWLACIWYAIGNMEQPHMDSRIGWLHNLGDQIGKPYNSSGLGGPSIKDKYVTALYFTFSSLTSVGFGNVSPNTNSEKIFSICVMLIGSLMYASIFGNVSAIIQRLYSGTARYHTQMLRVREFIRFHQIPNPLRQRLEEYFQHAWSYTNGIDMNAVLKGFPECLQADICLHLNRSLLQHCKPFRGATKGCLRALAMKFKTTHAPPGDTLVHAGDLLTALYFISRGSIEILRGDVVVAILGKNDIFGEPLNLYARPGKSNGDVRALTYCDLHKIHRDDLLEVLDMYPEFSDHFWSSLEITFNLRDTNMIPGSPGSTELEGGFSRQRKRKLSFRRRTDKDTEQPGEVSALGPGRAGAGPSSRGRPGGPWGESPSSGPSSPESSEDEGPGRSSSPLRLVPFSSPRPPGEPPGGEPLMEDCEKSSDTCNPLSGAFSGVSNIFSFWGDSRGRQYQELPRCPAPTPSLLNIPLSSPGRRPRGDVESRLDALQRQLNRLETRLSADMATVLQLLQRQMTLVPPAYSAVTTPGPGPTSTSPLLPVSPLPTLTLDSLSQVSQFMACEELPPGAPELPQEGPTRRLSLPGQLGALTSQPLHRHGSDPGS
The series is described as follows: hERG potassium channel inhibition test (automatic patch clamp). It counts as cell-based. The note with it: pH 7.4, hERG-expressing CHO cells, tail current, read-out: hERG channel inhibitory action. How it is done: hERG (Human Ether-A-Go-Go-Related Gene) Potassium Channel Inhibition Test
The test was performed with Port-a-Patch automatic patch clump apparatus (Nanion Technologies) using hERG channel-stably expressing CHO cells (purchased from Channelopathy Foundation). The membrane potential of the cells was maintained at −80 mV, then there were applied a depolarization pulse at +20 mV for 1.5 seconds, and a following test pulse at −50 mV for 1.5 seconds at a frequency of 1 time per 10 seconds, and the hERG current was confirmed as a tail current induced by the test pulse. The test compound was dissolved in an extracellular fluid (137 mM NaCl, 4 mM KCl, 1.8 mM CaCl2, 1 mM MgCl2, 10 mM D(+)-glucose, 10 mM HEPES, pH 7.4), and the solution was refluxed at room temperature for 5 minutes. The inhibition ratio was obtained from the ratio of the tail current value observed after the compound was applied based on the tail current value observed before the compound was applied, which was taken as 100%.

In series [1] the test system is olfactory bulbectomized (OBX) rat. The series is described as follows: Hyperemotional reaction inhibition test using olfactory bulbectomized (OBX) rat. It counts as in vivo. The note with it: for hyperemotional reactions of the OBX rats compared with the solvent administration group: maintained until day 14. An excerpt:
Hyperemotional Reaction Inhibition Test Using Olfactory Bulbectomized (OBX) Rat
According to the method of Saitoh et al. (Saitoh A, Yamada M, Yamada M, Takahashi K, Yamaguchi K, Murasawa H, Nakatani A, Tatsumi Y, Hirose N, and Kamei J: Antidepressant-like effects of the delta-opioid receptor agonist SNC80 ((+)-4-[(alphaR)-alpha-[(2S,5R)-2,5-dimethyl-4-(2-propenyl)-1-piperazinyl]-(3-methoxyphenyl)methyl]-N,N-diethylbenzamide) in an olfactory bulbectomized rat model, Brain Res., 2008, 1208:160-169), OBX rats were prepared by extracting the rat olfactory bulbs, and then breeding the rats in an isolated circumstance. Hyperemotional reaction was evaluated on the day 14 after the surgical operation and before the division into groups, and 2 hours after the administration on the days 1, 4, 7, 10, and 14 of the administration period according to the hyperemotional reaction evaluation criteria prepared by Gomita et al. (Gomita et al., Behavioral pharmacological and electroencephalographical studies of 7-chloro-1-methyl-5-phenyl-1H-1,5-benzodiazepine-2,4-(3H,5H:)-dione (Clobazam), Folia Pharmacologica Japonica, 82, 267 (1983)). The drug was subcutaneously administered once a day continuously over 14 days. As a positive control drug, fluoxetine, which is a selective serotonin reuptake inhibitor (SSRI), was used. As the solvent, a 1% cyclodextrin (CD) was used.

The next series relates to ICR male mice. The series is described as follows: Reserpine-induced Parkinson's disease model mouse. Format: in vivo. The note with it: reserpine-treated mice, 10 mg/kg s.c. As to the method: Reserpine-Induced Parkinson's Disease Model Mouse
ICR male mice (5 weeks old, Japan SLC) were obtained, and used after an acclimation period (5 to 12 days).
PD model was prepared with reference to the report of Hille et al. (Exp. Neurol., 2001, 172:189). It was prepared by intraperitoneally administering reserpine (5 mg/kg) 18 to 24 hours before the start of the test. The test was performed by subcutaneously administering a test compound to each mouse on the day of the test, immediately putting the mouse into a cage for monitoring locomotor activity, and measuring the migration distance over 60 minutes.

For another series, the system named is SD male rats. The series is described as follows: Rat cerebral infarction-induced overactive bladder model (cystometry). Format: in vivo. The note with it: for Pressure at the time of urination / Single urination amount / Static pressure / Urination interval: cumulative, Mean ± S.E. (n = 5). How it is done: Evaluation Using Rat Cerebral Infarction-Induced Overactive Bladder Model
A transient middle cerebral artery occlusion model was prepared by using 8 weeks old SD male rats under isoflurane inhalation anesthesia. On the next day, the cervix was slightly cut open again under the isoflurane inhalation anesthesia, and a catheter for administration was fixed in the jugular vein, and led to the back. A cystometry operation was also performed, and the other end of a cannula inserted into the bladder was led to the back, and connected to a cannula swivel.
On the day 4 after the cerebral ischemia operation, cystometry was performed under no anesthesia and with no restraint. Intravesical pressure was measured for the stable period, then a medium was intravenously administered, and the value of the pressure was measured over about 30 minutes as a value before test substance administration. Then, the test substance was cumulatively and intravenously administered from the lowest dose at intervals of about 30 minutes, and the value was measured for about 30 minutes after each administration. For the rats determined to show pollakiuria (urination interval was 10 minutes or shorter) in the measurement before the administration, static intravesical pressure, pressure at the time of urination, urination interval, and single urination amount were measured at each time point.

T1 sequence (P35372 whole entry): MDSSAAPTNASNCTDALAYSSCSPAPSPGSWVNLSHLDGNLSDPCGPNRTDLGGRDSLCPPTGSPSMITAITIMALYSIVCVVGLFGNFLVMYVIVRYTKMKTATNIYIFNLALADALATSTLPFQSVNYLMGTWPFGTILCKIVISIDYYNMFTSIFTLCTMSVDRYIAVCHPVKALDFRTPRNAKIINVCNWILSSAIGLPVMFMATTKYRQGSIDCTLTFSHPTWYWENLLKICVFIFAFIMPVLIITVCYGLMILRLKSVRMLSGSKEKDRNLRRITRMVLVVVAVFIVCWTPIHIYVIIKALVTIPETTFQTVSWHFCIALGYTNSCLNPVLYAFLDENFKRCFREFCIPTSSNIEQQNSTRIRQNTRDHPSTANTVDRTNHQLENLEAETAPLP

Consider `O=C(c1cccc(=O)[nH]1)N1C[C@H]2C[C@@]34CC[C@@H]1[C@@H]2[C@@]31CCN(CC2CC2)[C@@H]4Cc2ccc(O)cc21` [Example 7, 6-((1S,3aR,5aS,6R,11bR,11cS)-14-(cyclopropylmethyl)-10-hydroxy-2,3,3a,4,5,6,7,11c-octahydro-1H-6,11b-(epiminoethano)-1,5a-methanonaphtho[1,2-e]indole-3-carbonyl)pyridin-2(1H)-one], for which the EC50 at human opioid μ receptor (CHO cells expressing human μ receptor, cAMP, in the presence of forskolin, read-out: μ receptor EC50 value) is over 1 nM. Besides, the Emax at human opioid μ receptor (ratio to maximum reaction of control drug DAMGO taken as 100%) amounted to 10%. In addition, on human opioid κ receptor, the “κ receptor reaction rate at the maximum concentration (reference value, marked *)” value is −0.9* %. For the same compound, the inhibition at 5 min, 10 µM on hERG potassium channel is under 50%. Besides, the “hyperemotional reactions of the OBX rats compared with the solvent administration group” value in series [1] (0.1 mg/kg s.c. once a day, from the day 4 of the administration period) is “significantly reduced”. Also, the “hyperemotional reactions of the OBX rats relative to sham surgery group” value in series [1] (0.1 mg/kg s.c. once a day, on the day 7 of the administration period) is on record as “restored the condition even to a level comparable to that of the rats of the sham surgery group”. For the same compound, the “hyperemotional reactions of the OBX rats compared with the solvent administration group” value in series [1] (1 mg/kg s.c. once a day, from the day 1 of the administration period) is listed as “significantly reduced”. In series [1] (1 mg/kg s.c. once a day, on the day 4 of the administration period), the “hyperemotional reactions of the OBX rats relative to sham surgery group” value is “restored the condition even to a level comparable to that of the rats of the sham surgery group”. Also, the exploratory behavior result with ICR male mice (60 minutes) was “significantly increased”. Also, the standing up behavior result in the series with ICR male mice (not significant (P=0.16)) is reported as “tendency of increase”. In the series on SD male rats (0.01 mg/kg intravenous), the “Pressure at the time of urination” value is 42.9 ± 10.7 mmHg, the Single urination amount is 0.310 ± 0.068 g, the Static pressure was found to be 9.5 ± 1.3 mmHg and the Urination interval was found to be 450.7 ± 76.9 s. Moreover, in the series with SD male rats (0.1 mg/kg intravenous), the “Pressure at the time of urination” value was determined as 42.8 ± 9.7 mmHg, the Single urination amount is listed as 0.403 ± 0.129 g, the Static pressure was determined as 9.6 ± 1.1 mmHg and the Urination interval was 547.4 ± 122.5 s. In addition, in the series on SD male rats (0.01 and 0.1 mg/kg intravenous), the “effect on single urination amount (in words)” value is given as “dose-dependently increasing tendency” and the “effect on urination interval (in words)” value is “dose-dependently increasing tendency”. Also, in the series on SD male rats (all the doses), the “effect on pressure at the time of urination (in words)” value is recorded as “did not affect” and the “effect on static intravesical pressure (in words)” value was “did not affect”.
